Assay results taken from ChEMBL document CHEMBL1150515, “Synthesis and structure-activity relationships of novel THF 1-methylcarbapenems II” (1997).
≈ marks a conversion by molar mass, not a printed value.

Key:
[1] = test system: Acinetobacter calcoaceticus; assay: Antimicrobial activity against Acinetobacter calcoaceticus (GC 756); type: functional
[2] = Antimicrobial activity against Citrobacter freundii (GC 2211); type: functional
[3] = target: T1, Dipeptidase 1 (Sus scrofa) (UniProt P22412); assay: Relative hydrolysis to that of imipenem was determined by hog renal dehydropeptidase
T1 sequence (whole entry): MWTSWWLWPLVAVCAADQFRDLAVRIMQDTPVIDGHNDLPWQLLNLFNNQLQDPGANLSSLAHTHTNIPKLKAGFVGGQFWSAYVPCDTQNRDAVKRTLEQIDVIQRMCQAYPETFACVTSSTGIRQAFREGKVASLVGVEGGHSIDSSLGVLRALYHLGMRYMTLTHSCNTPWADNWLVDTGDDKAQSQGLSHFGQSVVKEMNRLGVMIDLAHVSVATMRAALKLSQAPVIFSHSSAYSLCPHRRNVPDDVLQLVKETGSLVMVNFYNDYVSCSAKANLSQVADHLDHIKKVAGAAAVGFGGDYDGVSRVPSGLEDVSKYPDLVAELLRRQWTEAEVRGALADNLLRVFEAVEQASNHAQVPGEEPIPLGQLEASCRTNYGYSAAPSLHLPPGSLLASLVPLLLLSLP

[4] = Antimicrobial activity against Enterococcus faecium (GC 1182); type: functional
[5] = Antimicrobial activity against Enterobacter cloacae (GC 2209); type: functional
[6] = Antimicrobial activity against Enterococcus faecalis (GC 842); type: functional
Escherichia coli [7] = assay: Antimicrobial activity against Escherichia coli (ATCC 25922); type: functional
Escherichia coli [8] = assay: Antimicrobial activity against Escherichia coli (GC 1792); type: functional
Escherichia coli [9] = assay: Antimicrobial activity against Escherichia coli (GC 2205); type: functional
[10] = Antimicrobial activity against Morganella morganii (GC 2213); type: functional
Pseudomonas aeruginosa [11] = assay: Antimicrobial activity against Pseudomonas aeruginosa (ATCC 27853); type: functional
Pseudomonas aeruginosa [12] = assay: Antimicrobial activity against Pseudomonas aeruginosa (GC 1544 OprD); type: functional
Staphylococcus aureus [13] = assay: Antimicrobial activity against Staphylococcus aureus (ATCC 29213); type: functional
Staphylococcus aureus [14] = assay: Antimicrobial activity against methicillin - resistant Staphylococcus aureus (GC 2220); type: functional
[15] = Antimicrobial activity against Xanthomonas maltophilia (GC 562); type: functional; details: Stenotrophomonas maltophilia

Compound `CCN1CCN(C(=O)NCC2CC(SC3=C(C(=O)[O-])N4C(=O)[C@H]([C@@H](C)O)[C@H]4[C@H]3C)CO2)C(=O)C1=O.[Na+]` (stereo partly specified) has an MIC [1] of 128 µg/mL, an MIC [2] of 32 µg/mL and a Relative hydrolysis [3] of 13. The MIC [4] was greater than 128 µg/mL, the MIC [5] was 8 µg/mL and the MIC [6] was 16 µg/mL. It also gave an MIC (Escherichia coli [7]) of 2 µg/mL, an MIC (Escherichia coli [8]) of 4 µg/mL and an MIC (Escherichia coli [9]) of 0.25 µg/mL. For the same compound, the MIC [10] was 16 µg/mL, the MIC (Pseudomonas aeruginosa [11]) was greater than 128 µg/mL and the MIC (Pseudomonas aeruginosa [12]) was 128 µg/mL. The MIC (Staphylococcus aureus [13]) was 0.5 µg/mL, the MIC (Staphylococcus aureus [14]) was 32 µg/mL and the MIC [15] was greater than 128 µg/mL.

Work on `C[C@@H](O)[C@H]1C(=O)N2C(C(=O)[O-])=C(S[C@@H]3CCO[C@@H]3C/N=C\N)[C@H](C)[C@H]12.[Na+]` yielded an MIC [1] of 8 µg/mL, an MIC [2] of 0.5 µg/mL and a Relative hydrolysis [3] of 18. For the same compound, the MIC [4] was greater than 128 µg/mL, the MIC [5] was no more than 0.06 µg/mL and the MIC [6] was 2 µg/mL. For the same compound, the MIC (Escherichia coli [7]) was no more than 0.06 µg/mL, the MIC (Escherichia coli [8]) was no more than 0.06 µg/mL and the MIC (Escherichia coli [9]) was 0.12 µg/mL. The MIC [10] was 1 µg/mL, the MIC (Pseudomonas aeruginosa [11]) was 16 µg/mL and the MIC (Pseudomonas aeruginosa [12]) was 32 µg/mL. The MIC (Staphylococcus aureus [13]) was no more than 0.06 µg/mL, the MIC (Staphylococcus aureus [14]) was 4 µg/mL and the MIC [15] was greater than 128 µg/mL.

In the case of `CNC[C@H]1OCC[C@H]1SC1=C(C(=O)[O-])N2C(=O)[C@H]([C@@H](C)O)[C@H]2[C@H]1C.[Na+]`, the MIC [1] was 4 µg/mL, the MIC [2] was 0.12 µg/mL and the Relative hydrolysis [3] was 10. The MIC [4] was greater than 64 µg/mL, the MIC [5] was no more than 0.06 µg/mL and the MIC [6] was 0.5 µg/mL. The MIC (Escherichia coli [7]) was no more than 0.06 µg/mL, the MIC (Escherichia coli [8]) was no more than 0.06 µg/mL and the MIC (Escherichia coli [9]) was no more than 0.06 µg/mL. It also gave an MIC [10] of 0.5 µg/mL, an MIC (Pseudomonas aeruginosa [11]) of 8 µg/mL and an MIC (Pseudomonas aeruginosa [12]) of 32 µg/mL. The MIC (Staphylococcus aureus [13]) was no more than 0.06 µg/mL, the MIC (Staphylococcus aureus [14]) was 1 µg/mL and the MIC [15] was greater than 128 µg/mL.

`C[C@@H](N)C(=O)NC[C@H]1OCC[C@H]1SC1=C(C(=O)[O-])N2C(=O)[C@H]([C@@H](C)O)[C@H]2[C@H]1C.[Na+]` showed an MIC [1] of 8 µg/mL, an MIC [2] of 1 µg/mL and a Relative hydrolysis [3] of 3. It also gave an MIC [4] greater than 128 µg/mL, an MIC [5] of 0.25 µg/mL and an MIC [6] of 2 µg/mL. It also gave an MIC (Escherichia coli [7]) of no more than 0.06 µg/mL, an MIC (Escherichia coli [8]) of 0.12 µg/mL and an MIC (Escherichia coli [9]) of no more than 0.06 µg/mL. It also gave an MIC [10] of 1 µg/mL, an MIC (Pseudomonas aeruginosa [11]) of 64 µg/mL and an MIC (Pseudomonas aeruginosa [12]) of 64 µg/mL. For the same compound, the MIC (Staphylococcus aureus [13]) was no more than 0.06 µg/mL, the MIC (Staphylococcus aureus [14]) was 8 µg/mL and the MIC [15] was greater than 128 µg/mL.

`C[C@@H](O)[C@H]1C(=O)N2C(C(=O)[O-])=C(SC3COC(C/N=C/N)C3)[C@H](C)[C@H]12.[Na+]` (stereo partly specified) showed an MIC [1] of 2 µg/mL, an MIC [2] of no more than 0.06 µg/mL and an MIC [4] greater than 128 µg/mL. It also gave an MIC [5] of no more than 0.06 µg/mL, an MIC [6] of 2 µg/mL and an MIC (Escherichia coli [7]) of no more than 0.06 µg/mL. It also gave an MIC (Escherichia coli [8]) of no more than 0.06 µg/mL, an MIC (Escherichia coli [9]) of no more than 0.06 µg/mL and an MIC [10] of 0.5 µg/mL. It also gave an MIC (Pseudomonas aeruginosa [11]) of 8 µg/mL, an MIC (Pseudomonas aeruginosa [12]) of 16 µg/mL and an MIC (Staphylococcus aureus [13]) of no more than 0.06 µg/mL. The MIC (Staphylococcus aureus [14]) was 8 µg/mL and the MIC [15] was greater than 128 µg/mL.

`C[C@@H](O)[C@H]1C(=O)N2C(C(=O)[O-])=C(SC3COC(C[N+](C)(C)C)C3)[C@H](C)[C@H]12` (stereo partly specified) showed an MIC [1] of 16 µg/mL (≈ 41.6 µM), an MIC [2] of 1 µg/mL (≈ 2.6 µM) and an MIC [4] greater than 128 µg/mL. It also gave an MIC [5] of 0.25 µg/mL (≈ 0.65 µM), an MIC [6] of 8 µg/mL (≈ 20.8 µM) and an MIC (Escherichia coli [7]) of 0.25 µg/mL (≈ 0.65 µM). For the same compound, the MIC (Escherichia coli [8]) was 0.25 µg/mL (≈ 0.65 µM), the MIC (Escherichia coli [9]) was 0.25 µg/mL (≈ 0.65 µM) and the MIC [10] was 4 µg/mL (≈ 10.4 µM). It also gave an MIC (Pseudomonas aeruginosa [11]) of 32 µg/mL (≈ 83.2 µM), an MIC (Pseudomonas aeruginosa [12]) of 64 µg/mL (≈ 166 µM) and an MIC (Staphylococcus aureus [13]) of 0.12 µg/mL (≈ 0.312 µM). For the same compound, the MIC (Staphylococcus aureus [14]) was 16 µg/mL (≈ 41.6 µM) and the MIC [15] was greater than 128 µg/mL.

`CNCC(=O)NCC1CC(SC2=C(C(=O)[O-])N3C(=O)[C@H]([C@@H](C)O)[C@H]3[C@H]2C)CO1.[Na+]` (stereo partly specified) gave an MIC [1] of 2 µg/mL, an MIC [2] of 0.25 µg/mL and an MIC [4] greater than 128 µg/mL. For the same compound, the MIC [5] was no more than 0.06 µg/mL, the MIC [6] was 4 µg/mL and the MIC (Escherichia coli [7]) was no more than 0.06 µg/mL. The MIC (Escherichia coli [8]) was no more than 0.06 µg/mL, the MIC (Escherichia coli [9]) was no more than 0.06 µg/mL and the MIC [10] was 0.25 µg/mL. It also gave an MIC (Pseudomonas aeruginosa [11]) of 32 µg/mL, an MIC (Pseudomonas aeruginosa [12]) of 32 µg/mL and an MIC (Staphylococcus aureus [13]) of no more than 0.06 µg/mL. For the same compound, the MIC (Staphylococcus aureus [14]) was 16 µg/mL and the MIC [15] was greater than 128 µg/mL.

For `C[C@@H](O)[C@H]1C(=O)N2C(C(=O)[O-])=C(SC3COC(C/N=C/N(C)C)C3)[C@H](C)[C@H]12.[Na+]` (stereo partly specified), the MIC [1] was 16 µg/mL, the MIC [2] was 0.5 µg/mL and the MIC [4] was greater than 128 µg/mL. The MIC [5] was 0.12 µg/mL, the MIC [6] was 8 µg/mL and the MIC (Escherichia coli [7]) was 0.12 µg/mL. It also gave an MIC (Escherichia coli [8]) of 0.12 µg/mL, an MIC (Escherichia coli [9]) of 0.12 µg/mL and an MIC [10] of 2 µg/mL. The MIC (Pseudomonas aeruginosa [11]) was 16 µg/mL, the MIC (Pseudomonas aeruginosa [12]) was 32 µg/mL and the MIC (Staphylococcus aureus [13]) was 0.12 µg/mL. It also gave an MIC (Staphylococcus aureus [14]) of 16 µg/mL and an MIC [15] greater than 128 µg/mL.
